Laboratory results: patent publication US20260108602A1, “METHODS AND SYSTEMS FOR IMPROVING ANTI-CANCER THERAPIES” (Osasuna Therapeutics SA, priority 2023, published 2026)

How the values were obtained:
[1] = test system: Dbi^+/+ and Dbi^−/− HCC cells; test: CCK-8 viability assay of primary HCC cells treated with ferroptosis inducers; type: cell-based, mouse; conditions: ferroptosis inducer combined with Dbi knockout; normalized to respective Dbi^+/+ and Dbi^−/− vehicle controls
Description: (FIG. 26A-FIG. 26D). Groups receiving ferroptosis inducers were normalized to their respective Dbi^+/+ and Dbi^−/− vehicle (Veh) treated control groups.
Proliferation assays. CCK-8 assays were performed with a commercial kit. For colony formation assays, HEPG-2 (NC, SH1, SH2, and SH3, 1000 cells/well), HUH-7 (NC, SH1, SH2, and SH3, 1000 cells/well) and Hep55.1C (NC, SH1, SH2, and SH3, 500 cells/well) cancer cells were seeded into 6-well plates in 2 mL medium with 10% FBS. The medium was changed every 3 days until control (NC) wells approached confluency, within 7-14 days. After gently washed twice with PBS, colonies were fixed with 4% paraformaldehyde for 30 min and stained with 0.2% crystal violet for 30 min at room temperature. The colony number (colonies >0.3 mm) was counted with isoftware. All experiments were performed in triplicates.
Six-well plates were coated with 2% FBS/PBS+0.1% laminin. HCC tumors were isolated from NASH-driven mouse model (WD+D-fructose+D-glucose in water+CCl4 administered to DBI^+/+ or DBI^−/− mice) and washed twice with ice-cold PBS. The tumor tissues were transferred to 10 cm plates, minced completely with a razor blade and then transferred to 15 mL falcon tubes. Ten mL 2 mg/mL collagenase dispase solution was added, the cells were incubated rotating for 30 min at 37° C. and were filtered through 100 μm meshes into 50 mL falcon tubes, before addition of 10 mL 2% FBS/PBS to wash the tissues. The samples were then filtered sequentially through 70 μm and 40 μm strainers, brought up to 15 mL volume and centrifuged again (room temperature (RT), 1000 rpm, 2 min). The cells were then resuspended in 5 mL of 1×red blood cell (RBC) lysis buffer, incubated on ice for 10 min before addition of 5 mL 2% FBS/PBS, followed by spinning (RT, 1000 rpm, 2 min). The washing step was repeated 2 times, and the cells were resuspended in culture medium (500 mL DMEM+10% FBS+1×ITS+20 μl EGF (1 μg/μl)+20 μl IGFII (0.2 μg/μl)), before seeding into 6-well plates.

[2] = test system: E0771 breast cancer cells; test: Subcutaneous E0771 breast cancer model with anti-PD1 immunotherapy
Description: E0771—For the establishment of syngeneic solid tumors, C57BL/6J mice (8-weeks-old female) were injected subcutaneously (s.c.) with 5×10^5 wild type E0771 in the right lower quadrant of the abdomen alongside of the mammary gland (close to the orthotopic site). Approximately 7 days after injection, tumor growth was monitored with an electronic caliper and mice were assigned to different groups. From day 8, mice were treated with a neutralizing anti-DBI monoclonal antibody (5 mg/kg) or its isotype (IgG2A, 5 mg/kg) every two days. At the same time, free corticosterone (Sigma-Aldrich) was added to the drinking water (0.1 mg/ml; water/ethanol 0.66%). Anti-PD1 monoclonal antibody (αPD1; 10 mg/kg) was injected at days 12, 15, 18 and 21. Tumor growth was monitored routinely with an electronic caliper.
For tumor growth experiments, longitudinal analyses were performed by linear mixed effect modeling of tumor sizes. […]
C57BL/6J mice were inoculated subcutaneously (s.c.) with syngeneic E0771 breast cancer cells. Six days later treatment of corticosterone (CORT or as a control with vehicle only, 0.66% ethanol, which was administered in the drinking water) and anti-ACBP/DBI mAb (or the isotype control mAb, both injected i.p. three times per week) was initiated and tumor growth was monitored over several weeks. […]

[3] = test system: TC1 NSCLC cells; test: Orthotopic TC1 Luc lung cancer model (bioluminescence imaging); type: in vivo, C57BL/6J mice; conditions: corticosterone in drinking water + OXA + anti-PD1
Description: TC-1—To establish the orthotopic TC1 model, wild type TC1 Luc cells (5×10^5 in 100 μL PBS) were intravenously injected to wild type C57BL/6J mice. Tumor incidence and development were monitored by in vivo photonic imaging of tumor cells' luciferase activity. About 7 days after injection, tumor incidence in the lung was detected at an exposure time of 4 min, and mice were randomized according to quantified tumor sizes and assigned to different groups for treatment as described below. Anti-DBI or isotype control antibody was intraperitoneally (i.p.) injected on day 9, at the dose of 2.5 mg/kg body weight, and on day 10, then maintained every other day until day 18. […]
Next, the positive effects of anti-ACBP/DBI mAb on chemo-immunotherapy in another model, namely non-small cell lung cancers (NSCLC) were confirmed. TC1 NSCLC cells expressing luciferase injected intravenously (i.v.) into syngeneic immunocompetent C57BL/6J mice form orthotopic lung cancers that can be monitored by bioluminescence imaging. […] From day 9 post-inoculation of TC1 cells, NSCLC-bearing mice were periodically i.p. injected with anti-ACBP/DBI mAb (or an isotype control mAb) and then were treated on day 11 post-inoculation with OXA (i.p. once) and anti-PD1 mAb (injected i.p. on days 19, 23 and 27 post-TC1 injection) (FIG. 4A) and tumor progression was determined by bioluminescence imaging (FIG. 4B). […]

[4] = test system: MCA205 fibrosarcoma cells; test: Anti-tumor vaccination assay (MTX-treated MCA205 cells, rechallenge with live cells); type: in vivo, C57BL/6J mice; conditions: CORT in drinking water + vaccination with MTX-treated MCA205 cells
Description: Wild-type MCA205 cells were treated with MTX (4 μM) for 24 h. Then supernatants and detached cells were collected and centrifuged, and the pellet was further washed with ice-cold PBS. 2×10^6 cells in 100 μl PBS were s.c. injected to the left flank of immunocompetent C57BL/6J mice (day −7). PBS was injected as a negative control. One week later, all mice were confirmed tumor-free in the vaccination flank and living cancer cells (2×10^5 cells per mouse for MCA205 cells) were injected in the right flank of vaccinated mice (day 0). Corticosterone and neutralizing anti-DBI monoclonal antibody were continually administrated throughout the experiment. Tumor growth was regularly monitored for the following weeks.
After the first week of treatment, the animals were subcutaneously (s.c.) injected with mitoxantrone (MTX)-treated MCA205 fibrosarcoma cells, knowing that MTX-induces ICD and that MTX-treated cancer cells induce a protective anti-cancer immune response that suppresses, delays or reduces the growth of tumors that would grow in naïve mice after injection of live, untreated MCA205 fibrosarcoma cell. [Panaretakis T. et al., Mechanisms of pre-apoptotic calreticulin exposure in immunogenic cell death, EMNO J, 2009, 28 (5), pp. 578-590.]

| SMILES | viability (CCK-8) [1] | tumor growth (effect of anti-PD1) ([2]; CORT in drinking water + anti-PD1) | animal survival (efficacy of anti-PD1) ([2]; corticotherapy + anti-PD1) | chemo-immunotherapeutic effect (tumor size by bioluminescence) [3] | vaccination effect [4] |
| --- | --- | --- | --- | --- | --- |
| CC(C)Oc1ccc(C(=O)Cn2ccnc2)cc1-n1c(CN2CCN(C(=O)COc3ccc(Cl)cc3)CC2)nc2ccccc2c1=O [IKE, imidazole ketone erastin] | particularly vulnerable to losing their viability | – | – | – | – |
| CCCCC/C=C\C/C=C\CCCCCCCC(=O)O [LA, linoleic acid] | particularly vulnerable to losing their viability | – | – | – | – |
| COC(=O)c1ccc([C@@H]2c3[nH]c4ccccc4c3C[C@@H](C(=O)OC)N2C(=O)CCl)cc1 [RSL3] | particularly vulnerable to losing their viability | – | – | – | – |
| C[C@]12C[C@H](O)[C@H]3[C@@H](CCC4=CC(=O)CC[C@@]43C)[C@@H]1CC[C@@H]2C(=O)CO [corticosterone] | – | lost | loss | strongly interfered | reduced this vaccination effect |
